Measured values reported in patent publication US8399498B2, “Animal ectoparasite-controlling agent” (Sumitomo Chemical Company, Limited, priority 2010, dated 2013).

Key:
Assay type in all cases: in vivo
[1] = test system: Haemaphysalis longicornis; test: Dropping application against dog-infested ticks; conditions: dog (beagle), dropping application on skin of neck and back, 20 mg/kg
Procedure: The previous day before dropping application, 100 test ticks (Haemaphysalis longicornis, young ticks) were deposited on a dog (beagle). Before the dropping application, infested ticks were counted.
Each (1.5 g) of the present hydrazide compound (1) and Comparative compound (52) was dissolved in diethylene glycol monoethyl ether (6.0 g) to prepare a test solution. Said test solution was directly dropped on the skin of the neck and back of the dog while pushing aside fur thereon at a rate of 0.1 ml per 1 kg of the dog's body weight (dose amount: 20 mg/kg). This is referred to as a test group. On the other hand, diethylene glycol monoethyl ether alone was applied dropwise to a placebo group.
Two (2) days after the application, the number of living ticks, which were infesting the dogs, was examined. When the examination was completed, all infested ticks were removed from the dogs.
The infestation rate and control rate were calculated by the following formulae:
Method of calculating infestation rate and control rate at the initial stage (2 days) after the application: Infestation rate (%) at X days after application=(number of living ticks at X days/number of living ticks before application)×100 Control rate (%) at X days after application=(infestation rate of test group before application−infestation rate of test group at X days)/infestation rate of test group before application×100 […]

[2] = test system: Haemaphysalis longicornis; test: Oral administration against mouse-infested ticks; conditions: test solution 20 mg/10 mL at 10 mL per 1 kg body weight, 2 days after administration
Procedure: The previous day before oral administration, 30 test ticks (Haemaphysalis longicornis, young ticks) were deposited on a mouse. Before the oral administration, uninfested ticks were removed.
The present hydrazide compound (1) (20 mg) was dissolved in dimethylformamide (680 mg), and thereto a corn oil was added to prepare a test solution (10 mL). Said test solution was orally administered to the mouse at the rate of 10 mL per 1 kg of the body weight of the mouse with a gastric sonde. To a control group, a 7% dimethylformamide/corn oil solution alone was orally administered. Each administration was repeated 3 times per group.
Two (2) days after the administration, the number of dead ticks was examined and the mortality was calculated by the following formula: Mortality (%)=100×(number of dead ticks/infested ticks before oral administration)

[3] = test system: Haemaphysalis longicornis; test: Dropping application against mouse-infested ticks; conditions: 0.1% w/v solution 200 μL dropwise on whole body surface, 2 days after application
Procedure: The previous day before dropping application, 30 test ticks (Haemaphysalis longicornis, young ticks) were deposited on a mouse. Before the dropping application, uninfested ticks were removed.
The present hydrazide compound (1) (5 mg) was dissolved in a mixture (5 mL) of propylene carbonate and diethylene glycol monoethyl ether in equal amounts to prepare a 0.1% w/v solution. Said solution (200 μL) was applied dropwise to the whole body surface of a mouse with a pipette. To a control group, the mixture (200 μL) alone was applied. Each application was repeated 3 times per group.
Two (2) days after the application, the number of dead ticks was examined and the mortality was calculated by the following formula: Mortality (%)=100×(number of dead ticks/infested ticks before dropping application)

`CC(=O)NNc1cc(C2=NOC(c3cc(Cl)cc(Cl)c3)(C(F)(F)F)C2)ccc1Cl` (stereo not shown) [Comparative compound (52), N′-{5-[5-(3,5-dichlorophenyl)-5-trifluoromethyl-4,5-dihydroisoxazol-3-yl]-2-chlorophenyl}acetohydrazide, reference compound] was tested, and the “Tick control rates (%) at 2 days after the application” value [1] was 44%.
For `COCC(=O)NNc1cc(C2=NOC(c3cc(Cl)cc(Cl)c3)(C(F)(F)F)C2)ccc1Cl` (stereo not shown) [Compound (1), N′-{2-chloro-5-[5-(3,5-dichlorophenyl)-5-trifluoromethyl-4,5-dihydroisoxazol-3-yl]phenyl}methoxyacetohydrazide], the “Tick control rates (%) at 2 days after the application” value [1] was 94%, the Mortality [2] was ≥ 90% and the Mortality [3] was ≥ 70%.
